Measured values as given in ChEMBL document CHEMBL6078711, “Design, synthesis, and biological evaluation of steroidal indole derivatives as membrane-targeting antibacterial candidates” (Eur J Med Chem, 2025).
Converted amounts (≈) assume the structure as drawn. The source made the active and inactive calls. The calls are words filed in the database; no cut-off is given here.

Experiments:
Staphylococcus aureus [1] = assay: Antibacterial activity against Staphylococcus aureus CGMCC1.8721 assessed as reduction in bacterial growth in presence of phosphatidylglycerol; format: functional
Staphylococcus aureus [2] = assay: Antibacterial activity against methicillin-resistant Staphylococcus aureus ATCC 33591 assessed as reduction in bacterial growth in presence of K+; format: functional
Staphylococcus aureus [3] = assay: Antibacterial activity against methicillin-resistant Staphylococcus aureus ATCC 33591 assessed as reduction in bacterial growth in presence of Zn2+; format: functional
Staphylococcus aureus [4] = assay: Antibacterial activity against Staphylococcus aureus CGMCC1.8721 assessed as reduction in bacterial growth in presence of Ca2+; format: functional
Staphylococcus aureus [5] = assay: Antibacterial activity against Staphylococcus aureus CGMCC1.8721 assessed as reduction in bacterial growth in presence of phosphatidylcholine; format: functional, organism-based
Staphylococcus aureus [6] = assay: Bactericidal activity against methicillin-resistant Staphylococcus aureus ATCC 43300 assessed as reduction in bacterial growth; format: functional
Staphylococcus aureus [7] = assay: Antibacterial activity against Staphylococcus aureus CGMCC1.8721 assessed as reduction in bacterial growth in presence of K+; format: functional
Staphylococcus aureus [8] = assay: Antibacterial activity against methicillin-resistant Staphylococcus aureus CGMCC 1.12409 assessed as reduction in bacterial growth in presence of Mg2+; format: functional
Staphylococcus aureus [9] = assay: Antibacterial activity against methicillin-resistant Staphylococcus aureus ATCC 43300 assessed as reduction in bacterial growth; format: functional
Staphylococcus aureus [10] = assay: Antibacterial activity against methicillin-resistant Staphylococcus aureus ATCC 33591 assessed as reduction in bacterial growth in presence of Fe2+; format: functional
Staphylococcus aureus [11] = assay: Antibacterial activity against methicillin-resistant Staphylococcus aureus ATCC 43300 assessed as reduction in bacterial growth in presence of Na+; format: functional
Staphylococcus aureus [12] = assay: Antibacterial activity against methicillin-resistant Staphylococcus aureus CGMCC 1.12409 assessed as reduction in bacterial growth in presence of Fe2+; format: functional
Staphylococcus aureus [13] = assay: Antibacterial activity against Staphylococcus aureus CGMCC1.8721 assessed as reduction in bacterial growth in presence of phosphatidylethanolamine; format: functional, organism-based
Staphylococcus aureus [14] = assay: Antibacterial activity against methicillin-resistant Staphylococcus aureus CGMCC 1.12409 assessed as reduction in bacterial growth; format: functional
Staphylococcus aureus [15] = assay: Bactericidal activity against Staphylococcus aureus CGMCC1.8721 assessed as reduction in bacterial growth; format: functional
Staphylococcus aureus [16] = assay: Antibacterial activity against Staphylococcus aureus CGMCC1.8721 assessed as reduction in bacterial growth at 4 to 8 times MIC measured after 24 hrs by time kill assay; format: functional, organism-based
Staphylococcus aureus [17] = assay: Antibacterial activity against Staphylococcus aureus CGMCC1.8721 assessed as reduction in bacterial growth; format: functional
HepG2 [18] = assay: Cytotoxicity against human HepG2 cells upto 20 uM; format: functional, cell-based
Staphylococcus aureus [19] = assay: Antibacterial activity against Staphylococcus aureus CGMCC1.8721 assessed as reduction in bacterial growth in presence of lipoteichoic acid; format: functional, organism-based
Staphylococcus aureus [20] = assay: Antibacterial activity against methicillin-resistant Staphylococcus aureus ATCC 43300 assessed as reduction in bacterial growth in presence of Zn2+; format: functional
Cell membrane [21] = assay: Disruption of cell membrane integrity in Staphylococcus aureus CGMCC1.8721 assessed as increase in red fluorescence at 4 times MIC by SYTO 9/PI staining based confocal microscopic analysis; format: subcellular
Staphylococcus aureus [22] = assay: Antibacterial activity against methicillin-resistant Staphylococcus aureus ATCC 43300 assessed as reduction in bacterial growth in presence of Fe2+; format: functional
Staphylococcus aureus [23] = assay: Antibacterial activity against methicillin-resistant Staphylococcus aureus ATCC 43300 assessed as reduction in bacterial growth in presence of K+; format: functional
[24] = Hemolytic activity against rabbit Red blood cell assessed as hemolysis; format: toxicity, cell-based, Oryctolagus cuniculus, Erythrocyte; conditions: red blood cells
Staphylococcus aureus [25] = assay: Antibacterial activity against Staphylococcus aureus CGMCC1.8721 assessed as reduction in bacterial growth in presence of Zn2+; format: functional
Cell membrane [26] = assay: Disruption of cell membrane integrity in Staphylococcus aureus CGMCC1.8721 assessed as appearance of ruptured cell surface at 1 to 4 times MIC by scanning electron microscopic analysis; format: subcellular
Staphylococcus aureus [27] = assay: Antibacterial activity against Staphylococcus aureus CGMCC1.8721 assessed as reduction in bacterial growth in presence of Fe3+; format: functional
[28] = Cytotoxicity against human HEK293T cells assessed as cell viability upto 40 uM relative to control; format: toxicity, cell-based, HEK-293T; conditions: read-out: Activity
Staphylococcus aureus [29] = assay: Antibacterial activity against methicillin-resistant Staphylococcus aureus CGMCC 1.12409 assessed as reduction in bacterial growth in presence of Zn2+; format: functional
Staphylococcus aureus [30] = assay: Drug resistance, ratio of MIC for Staphylococcus aureus CGMCC1.8721 after 30 days exposure to MIC for Staphylococcus aureus CGMCC1.8721 during first exposure; format: functional
HEK-293T = assay: Cytotoxicity against HEK293T cells upto 20 uM; format: toxicity, cell-based; conditions: human
Staphylococcus aureus [31] = assay: Antibacterial activity against methicillin-resistant Staphylococcus aureus ATCC 43300 assessed as reduction in bacterial growth in presence of Mg2+; format: functional
Staphylococcus aureus [32] = assay: Antibiofilm activity against Staphylococcus aureus CGMCC1.8721 assessed as inhibition of biofilm formation at 1 times MIC; format: functional
Staphylococcus aureus [33] = assay: Bactericidal activity against methicillin-resistant Staphylococcus aureus CGMCC 1.12409 assessed as reduction in bacterial growth; format: functional
Staphylococcus aureus [34] = assay: Antibacterial activity against Staphylococcus aureus CGMCC1.8721 assessed as reduction in metabolic activity at 1 to 4 times MIC by Alamar Blue assay; format: functional, organism-based
Staphylococcus aureus [35] = assay: Antibacterial activity against Staphylococcus aureus CGMCC1.8721 assessed as induction of ROS production at 1 to 4 times MIC by DCFH-DA staining based flow cytometry analysis; format: functional, organism-based
Cell membrane [36] = assay: Induction of membrane depolarization in Staphylococcus aureus CGMCC1.8721 assessed as increase in fluorescence intensity measured upto 30 mins by DiSC35 dye-based fluorescence assay; format: subcellular; conditions: dose 2-8 µg/ml
Staphylococcus aureus [37] = assay: Antibacterial activity against Methicillin-resistant Staphylococcus aureus CGMCC1.8721 infected in mouse skin infection model assessed as reduction in bacterial clones at 5 to 10 mg/kg, sc; format: functional, organism-based; conditions: dose 5-10 mg/kg
Staphylococcus aureus [38] = assay: Antibacterial activity against Staphylococcus aureus CGMCC1.8721 assessed as reduction in bacterial growth in presence of Mg2+; format: functional
Staphylococcus aureus [39] = assay: Antibacterial activity against Staphylococcus aureus CGMCC1.8721 assessed as reduction in bacterial growth in presence of Fe2+; format: functional
Cell membrane [40] = assay: Disruption of cell membrane integrity in Staphylococcus aureus CGMCC1.8721 assessed as increase in protein leakage at 4 times MIC; format: subcellular
Staphylococcus aureus [41] = assay: Antibiofilm activity against Staphylococcus aureus CGMCC1.8721 assessed as inhibition of biofilm formation; format: functional, organism-based
Staphylococcus aureus [42] = assay: Antibacterial activity against methicillin-resistant Staphylococcus aureus ATCC 43300 assessed as reduction in bacterial growth in presence of Fe3+; format: functional
HepG2 [43] = assay: Cytotoxicity against human HepG2 cells assessed as cell viability upto 40 uM relative to control; format: functional; conditions: up to 40 µM
Staphylococcus aureus [44] = assay: Antibacterial activity against methicillin-resistant Staphylococcus aureus CGMCC 1.12409 assessed as reduction in bacterial growth in presence of K+; format: functional
Staphylococcus aureus [45] = assay: Antibacterial activity against Staphylococcus aureus CGMCC1.8721 assessed as reduction in bacterial growth in presence of Na+; format: functional

Compound: CCNCc1ccc2[nH]cc(C[C@@H](C)[C@H]3CC[C@H]4[C@@H]5CC[C@@H]6C[C@H](O)CC[C@]6(C)[C@H]5CC[C@]34C)c2c1
- MIC (Staphylococcus aureus [1]): 32 µg/mL
- MIC (Staphylococcus aureus [2]): 2 µg/mL
- MIC (Staphylococcus aureus [3]): 2 µg/mL
- MIC (Staphylococcus aureus [4]): 1 µg/mL
- Activity (Staphylococcus aureus [5]): inactive
- MBC (Staphylococcus aureus [6]): 2 µg/mL (≈ 4.08 µM)
- MIC (Staphylococcus aureus [7]): 1 µg/mL
- MIC (Staphylococcus aureus [8]): 2 µg/mL
- MIC (Staphylococcus aureus [9]): 1 µg/mL (≈ 2.04 µM)
- MIC (Staphylococcus aureus [10]): 2 µg/mL
- MIC (Staphylococcus aureus [11]): 1 µg/mL
- MIC (Staphylococcus aureus [12]): 2 µg/mL
- Activity (Staphylococcus aureus [13]): inactive
- MIC (Staphylococcus aureus [14]): 2 µg/mL (≈ 4.08 µM)
- MBC (Staphylococcus aureus [15]): 2 µg/mL (≈ 4.08 µM)
- Activity (Staphylococcus aureus [16]): Active
- MIC (Staphylococcus aureus [17]): 1 µg/mL (≈ 2.04 µM)
- Activity (HepG2 [18]): Active
- Activity (Staphylococcus aureus [19]): inactive
- MIC (Staphylococcus aureus [20]): 1 µg/mL
- Activity (Cell membrane [21]): Active
- MIC (Staphylococcus aureus [22]): 1 µg/mL
- MIC (Staphylococcus aureus [23]): 1 µg/mL
- HC50 [24]: > 128 µg/mL
- MIC (Staphylococcus aureus [25]): 1 µg/mL
- Activity (Cell membrane [26]): Active
- MIC (Staphylococcus aureus [27]): 1 µg/mL
- viability at up to 40 µM [28]: > 70%
- MIC (Staphylococcus aureus [29]): 2 µg/mL
- Ratio (Staphylococcus aureus [30]): 64
- Activity (HEK-293T): Non-toxic
- MIC (Staphylococcus aureus [31]): 1 µg/mL
- inhibition (INH) (Staphylococcus aureus [32]): 64.1%
- MBC (Staphylococcus aureus [33]): 4 µg/mL (≈ 8.15 µM)
- Activity (Staphylococcus aureus [34]): Active
- Activity (Staphylococcus aureus [35]): Active
- Activity (Cell membrane [36]): Dose-dependent-effect
- AC30 (Staphylococcus aureus [37]): Active
- MIC (Staphylococcus aureus [38]): 1 µg/mL
- MIC (Staphylococcus aureus [39]): 1 µg/mL
- Activity (Cell membrane [40]): Active
- Activity (Staphylococcus aureus [41]): Dose-dependent-effect
- MIC (Staphylococcus aureus [42]): 1 µg/mL
- Activity (HepG2 [43]): >70%
- MIC (Staphylococcus aureus [44]): 2 µg/mL
- MIC (Staphylococcus aureus [45]): 1 µg/mL
